Measured values published in publication PMC4801481 (Biochemistry, 2015).
Where two headings read alike, the source gives them in different places.

Key:
[1] = Solubility of Rev protein; format: physicochemical; conditions: in the absence of RNA
[2] = in the absence of high salt; cited from earlier work
[3] = tested on: stem IA (HIV-1 RRE RNA hairpin); experiment: NMR of Rev complexes with stem IA; format: binding; conditions: 288 K
[4] = tested on: stem IIB (HIV-1 RRE RNA hairpin); experiment: NMR of Rev complexes with stem IIB; format: binding; conditions: 288 K

Substance | solubility [1] | solubility [2] | RNA imino resonances on RevDO binding ([3]; 1D 1H NMR, pH 6.5, 0.1 M KCl) | number of backbone amide resonances ([3]; 1H–15N HSQC, 15N-RevDO bound to IA, 0.4 mM, pH 6.5) [backbone amide resonances] | arginine Hε protons ([3]; 1H–15N HSQC, RevDO bound to IA) | 1H–15N HSQC peak appearance ([3]; 15N-RevDO bound to IA, 0.4 mM, pH 6.5) | RNA imino resonances on RevDO binding ([4]; 1D 1H NMR, pH 6.5, 0.1 M KCl) | number of backbone amide resonances ([4]; 1H–15N HSQC, 15N-RevDO bound to IIB, 0.4 mM, pH 6.5) [backbone amide resonances] | arginine Hε protons ([4]; 1H–15N HSQC, RevDO bound to IIB) | imino proton of Trp45 ([4]; 1H–15N HSQC, RevDO complexes, IIB versus IA) | 1H–15N HSQC peak appearance ([4]; 15N-RevDO bound to IIB, 0.4 mM, pH 6.5)
Rev protein: viral regulatory protein Rev of HIV-1 | poor solubility of Rev in the absence of RNA | poorly soluble in the absence of high salt | – | – | – | – | – | – | – | – | –
RevDO: Truncated HIV-1 Rev (residues 9–64) with mutated dimerization (L12 → S, L60 → R) and higher-order oligomerization (L18 → Q, I55 → N) surfaces | – | – | almost identical to those obtained with the Rev–ARM peptide | ~40 | mostly absent with IA | fewer, broader peaks | almost identical to those obtained with the Rev–ARM peptide | ~50 | well resolved with IIB | observed only with IIB | reasonably well-resolved peaks
